{"source": "patent US20080188447A1", "about": "“Glucocorticoid-lowering composition” (priority 2007, published 2008)", "assay": "Daily food intake with subcutaneous steroid supplementation (Example 3)", "format": "in vivo, rat", "details": "group C (oral corn oil vehicle, no extract), steroid 5 mg/kg/day sc on days 4 and 5", "protocol": "Male Wistar rats weighing about 250 g (2 groups designated as group C, control; and E, experimental treatment; 24 individuals per group) were kept as described in the Example 1 from day 1 to day 6 of the experiment. On days 1 through 4, a botanical extract from a plant Asclepias incarnata enriched with pregnane derivatives according to Formula (I) was administered orally in doses of 100 mg/kg body weight/day in 1 ml of corn oil (Sigma #C8267). As a negative control (vehicle), animals were administered orally with 1 ml of corn oil alone. On day 4 of the experiment both groups of animals C and E were further subdivided into 6 groups containing 4 animals each, designated C, control; PREG, pregnenolone; PROG, progesterone; DEOX, deoxycorticosterone; CORT, corticosterone; and DHEA, dehydroepiandrosterone. On day 4 and day 5, animals from these subgroups received a subcutaneous injection of 5 mg/kg body weight/day of the respective steroid compound in 5% DMSO and corn oil; total volume of 0.1 ml. The control animals in group C subgroup C and group E subgroup C received a subcutaneous injection of vehicle (5% DMSO in corn oil) only. On days 4 and 6 food intake was measured. […]", "data": [{"molecule": "C[C@]12C[C@H](O)[C@H]3[C@@H](CCC4=CC(=O)CC[C@@]43C)[C@@H]1CC[C@@H]2C(=O)CO", "note": "[CORT, corticosterone]", "values": [{"measurement": "Daily food intake, Day 6", "result": "no direct effect on food intake alone"}]}]}
